Measured values: patent US20240319202A1, “METHOD FOR EVALUATING AGGREGATION STATE OF AGGREGATIVE PROTEIN” (HAMAMATSU PHOTONICS K.K., priority 2023, published 2024)

How the values were obtained:
[1] = target: T1, lysozyme (Gallus gallus, UniProt P00698); test: Evaluation of aggregation state of heat-denatured lysozyme using light-absorption/fluorescence characteristics of a xanthene dye as index; conditions: lysozyme 7 μM, dye 1 μM, heat-stirred at 60° C.
T1 construct: purchased FUJIFILM Wako Pure Chemical Corporation
Procedure: 40 mg of lysozyme (manufactured by FUJIFILM Wako Pure Chemical Corporation) was added to 2 mL of an aqueous solution of 25 mM of hydrochloric acid and 100 mM of sodium chloride, and dissolved by being left to stand. The obtained lysozyme solution was heat-stirred at 200 rpm at 60° C. to cause heat denaturation of the lysozyme, thereby starting the aggregation reaction of the lysozyme. At 0, 10, 20, 25, 30, 35, 40, 45, 50, 60, 70, 80, and 90 minutes after starting heat-stirring, each of 100 μL of the lysozyme solution was extracted and ice-cooled. The ice-cooled lysozyme solution, and rose bengal (manufactured by FUJIFILM Wako Pure Chemical Corporation) were added to distilled water such that final concentrations were each 7 μM and 1 μM. The obtained solution was put in a spectroscopic measurement cell to measure the light-absorption/fluorescence characteristics. The excitation wavelength in fluorescence measurement was 530 nm.
Sample preparation and light absorption and fluorescence measurement were performed in the same manner as in Example 1 except that eosin Y (manufactured by FUJIFILM Wako Pure Chemical Corporation) was used instead of rose bengal as the xanthene dye, and that the excitation wavelength in fluorescence measurement was set to 500 nm. […]

[2] = target: T2, horseradish peroxidase (HRP) (Armoracia rusticana, UniProt P00433); test: Evaluation of aggregation state of heat-denatured horseradish peroxidase using light-absorption/fluorescence characteristics of rose bengal as index; conditions: HRP 5 μM, dye 1 μM, heat-stirred at 70° C., PBS pH 7.4
T2 construct: purchased FUJIFILM Wako Pure Chemical Corporation
T2 sequence (P00433 31-338): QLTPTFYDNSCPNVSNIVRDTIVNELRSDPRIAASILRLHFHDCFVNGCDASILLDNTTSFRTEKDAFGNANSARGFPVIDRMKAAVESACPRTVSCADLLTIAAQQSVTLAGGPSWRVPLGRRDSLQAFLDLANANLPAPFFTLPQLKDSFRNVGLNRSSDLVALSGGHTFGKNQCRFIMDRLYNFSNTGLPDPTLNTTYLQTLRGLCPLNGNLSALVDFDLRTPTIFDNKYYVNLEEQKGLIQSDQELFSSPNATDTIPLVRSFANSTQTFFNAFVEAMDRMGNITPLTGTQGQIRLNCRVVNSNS
Procedure: 40 mg of horseradish peroxidase (HRP, manufactured by FUJIFILM Wako Pure Chemical Corporation) was added to 2 mL of phosphate buffered saline at pH 7.4, and dissolved by being left to stand. The obtained HRP solution was heat-stirred at 200 rpm at 70° C. to cause heat denaturation of the HRP, thereby starting the aggregation reaction of the HRP. At 0, 5, 10, 15, 20, 25, 30, 35, 40, 50, 60, 70, 80, and 90 minutes after starting heat-stirring, each of 100 μL of the HRP solution was extracted and ice-cooled. The ice-cooled HRP solution, and rose bengal (manufactured by FUJIFILM Wako Pure Chemical Corporation) were added to distilled water such that final concentrations were each 5 μM and 1 μM. The obtained solution was put in a spectroscopic measurement cell to measure the light-absorption/fluorescence characteristics. The excitation wavelength in fluorescence measurement was 530 nm.

T1 sequence (P00698 19-147): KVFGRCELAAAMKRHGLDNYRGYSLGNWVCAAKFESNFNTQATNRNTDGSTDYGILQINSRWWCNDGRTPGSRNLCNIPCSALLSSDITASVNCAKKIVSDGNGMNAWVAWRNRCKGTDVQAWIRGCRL

Row | heat denaturation time at the minimum point of maximum absorbance (decreasing, thereafter increasing) ([2]; HRP absorption subtracted) | heat denaturation time at the minimum point of fluorescence intensity at around 570 nm and maximum fluorescence intensity (decreasing, thereafter increasing) ([2]; excitation 530 nm) | SMILES | shape of the absorption spectra, maximum absorption wavelength and maximum absorbance versus heat denaturation time [1]
1 |  |  | O.O=C([O-])c1ccccc1-c1c2cc(I)c(=O)c(I)c-2oc2c(I)c([O-])c(I)cc12.[Na+].[Na+] [erythrosin B] | changed depending on a heat denaturation time
2 | around 20 minutes | around 20 minutes | O=C(O)c1c(Cl)c(Cl)c(Cl)c(Cl)c1-c1c2cc(I)c(=O)c(I)c-2oc2c(I)c(O)c(I)cc12 [rose bengal] | 
